This passage reports Activity and viability results from ChEMBL document CHEMBL4014287, “Jesridonin in combination with paclitaxel demonstrates synergistic anti-tumor activity in human esophageal carcinoma cells” (Bioorg Med Chem Lett, 2017).

The subject of series [1] is Mus musculus. The series is described as follows: Toxicity in nude mouse xenografted with human EC109 cells assessed as body weight loss at 5 mg/kg measured after 21 days. Format: organism-based. The following applies: in vivo, 504 h.
The test system of series [2] is Mus musculus. Briefly: Toxicity in nude mouse xenografted with human EC109 cells assessed as pathological changes at 5 mg/kg measured after 21 days. Format: organism-based. The following applies: in vivo, 504 h.
Series [3] relates to ECa-109 cell line. Briefly: Induction of apoptosis in human EC109 cells assessed as necrotic cells at 5 nM after 24 hrs by Annexin V-FITC/propidium iodide staining based flow cytometry (reference value: 1.6 %). Format: functional. (In flow cytometry, cells or beads pass a laser one at a time.)
Series [4] concerns ECa-109 cell line. Briefly: Induction of apoptosis in human EC109 cells assessed as late apoptotic cells at 5 nM after 24 hrs by Annexin V-FITC/propidium iodide staining based flow cytometry (reference value: 1%). The class given is functional.
Series [5] concerns Mus musculus. Briefly: Toxicity in nude mouse xenografted with human EC109 cells assessed as skin ulceration at 5 mg/kg measured after 21 days. Format: organism-based. The settings on record: in vivo, 504 h.
Series [6] relates to ECa-109 cell line. The series is described as follows: Induction of apoptosis in human EC109 cells assessed as nuclear shrinkage at 5 nM after 24 hrs by Hochest 33258 staining based fluorescent microscopic analysis. Format: functional, cell-based.
Series [7] relates to ECa-109 cell line. Briefly: Induction of apoptosis in human EC109 cells assessed as early apoptotic cells at 5 nM after 24 hrs by Annexin V-FITC/propidium iodide staining based flow cytometry (reference value: 1.3%). The class given is functional.
The subject of series [8] is ECa-109 cell line. Briefly: Cytotoxicity against human EC109 cells assessed as reduction in cell viability after 24 hrs by MTT assay. The class given is functional, cell-based.
Series [9] deals with ECa-109 cell line. The series is described as follows: Antitumor activity against human EC109 cells xenografted in nude mouse assessed as induction of necrosis at 5 mg/kg measured after 21 days by H and E staining based assay. The class given is functional, organism-based. (In general: In xenograft studies the graft and the host belong to different species.)
Series [10] relates to ECa-109 cell line. The series is described as follows: Induction of apoptosis in human EC109 cells assessed as nuclear condensation at 5 nM after 24 hrs by Hochest 33258 staining based fluorescent microscopic analysis. Format: functional, cell-based.
The test system of series [11] is ECa-109 cell line. Briefly: Induction of apoptosis in human EC109 cells assessed as viable cells at 5 nM after 24 hrs by Annexin V-FITC/propidium iodide staining based flow cytometry (reference value: 96.1%). The class given is functional. The following applies: ECa-109, 24 h, read-out: Activity.

SMILES strings stand for the structures. Activity calls are given as the source filed them. The calls are words filed in the database; no cut-off is given here.

In the case of `CC(=O)O[C@H]1C(=O)[C@@]2(C)[C@H]([C@H](OC(=O)c3ccccc3)[C@]3(O)C[C@H](OC(=O)[C@H](O)[C@@H](NC(=O)c4ccccc4)c4ccccc4)C(C)=C1C3(C)C)[C@]1(OC(C)=O)CO[C@@H]1C[C@@H]2O` [PACLITAXEL], the Activity entry in the series with Mus musculus [1] is “Non-Toxic”; in the series on Mus musculus [2], “Non-Toxic”; in the series on ECa-109 cell line [3], 0.5%; in the series on ECa-109 cell line [4] it was 0.9%; with Mus musculus [5] it was “Non-Toxic”; in the series on ECa-109 cell line [7], 4.5%. Moreover, the Activity entry in the series on ECa-109 cell line [8] is “Dose-dependent effect”. The result in the series on ECa-109 cell line [6], with ECa-109 cell line [9] and with ECa-109 cell line [10] was Active. Besides, in the series on ECa-109 cell line [11], the viability at 0.005 µM was 94.1%.
